What was measured:
[1] = system: NCI-H292; assay: Cellular model: Trappin-2 content (ELISA) in lung epithelial cells treated with PAO1 supernatant; format: cell-based, human; conditions: PAO1 supernatant pre-incubated with compound 1h at 37°C, 6h incubation
Description: (§1) These degradations are beneficial for P. aeruginosa pathogenesis by inhibiting antimicrobial peptide while impairing lung function of the host by promoting lung damage and inhibiting epithelial cell repair. In mice, intranasally instillated LasB induced significant inflammation, injury and death. […] Our compounds are therefore been tested in cellular models to define inhibitory effect of our series on LasB deleterious effect on human lung epithelial cell models (NCI-H292 and CFBE). Supernatants from PAO1 wild type and lasB mutant (PAO1ΔlasB) are pre-incubated with Example 1 at 10 times the final concentrations for 1h at 37°C. Then, supernatants are added to cell lines. After 6h incubation, cell culture supernatants are recovered, IL-6 and Trappin-2 contents are analysed by ELISA method. A Student t-Test is performed to assess the statistical significance between conditions (p < 0.05, *). NCI-H292 and CFBE cells express respectively Trappin-2 and IL-6. Whether treatment with culture supernatant from PAO1ΔlasB induces an overexpression of both immune factors, the treatment with PAO1 supernatant lead to strong reduction of IL-6 and Trappin-2 detected. LasB, hydrolyzing IL-6 and Trappin-2, hijacks the immune response against PA. […] By restoring immune response and secretion of IL-6 and Trappin-2, Example 1 and related LasB inhibitors may restore eradication of PA by the immune system.

[2] = system: CFBE; assay: Cellular model: IL-6 content (ELISA) in lung epithelial cells treated with PAO1 supernatant; format: cell-based, human; conditions: PAO1 supernatant pre-incubated with compound 1h at 37°C, 6h incubation
Description: as §1

[3] = molecular target: T1, LasB (Pseudomonas aeruginosa, UniProt P14756); assay: Elastin assay to determine % inhibition (Elastin Congo-Red, dialysed culture supernatant); format: biochemical, P. aeruginosa PAO1; conditions: read-out: Elastin hydrolysis % inhibition @ 50 / 25 µM inhibitor concentration
T1 construct: uses as source of enzyme dialysed supernatant from P. aeruginosa PAO1; endogenous in cells; host or cells: P. aeruginosa PAO1 culture supernatant, filtered and dialysed
Summary of the method: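 Enzyme source was dialysed PAO1 culture supernatant (50 mM Tris-HCl pH 7.4, 2.5 mM CaCl2), mixed with Elastin Congo-Red and 0.01% Triton X-100. Compound was routinely 50 to 1.56 µM, incubated overnight at 37 °C with shaking. Dye release at OD495 gave % inhibition relative to DMSO and no-enzyme controls.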

[4] = molecular target: T2, purified LasB protein from P. aeruginosa (Pseudomonas aeruginosa, UniProt P14756); assay: Fluorometric assay to determine Ki (Abz-Ala-Gly-Leu-Ala-p-Nitro-Benzyl-Amide substrate); format: biochemical
T2 construct: purchased Merck or Charles River Laboratories
Summary of the method: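 Purified P. aeruginosa LasB (10–140 ng/ml) with 250 µM Abz-Ala-Gly-Leu-Ala-p-nitrobenzylamide in 50 mM Tris-HCl pH 7.4, 2.5 mM CaCl2, 0.01% Triton X100, 37 °C; hydrolysis fluorescence (Ex 340/Em 415 nm) followed over 30 min, inhibitor 0.0016–200 µM. Ki = IC50/(1+[S]/Km), Km 214 µM.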

T1 sequence (P14756 198-498): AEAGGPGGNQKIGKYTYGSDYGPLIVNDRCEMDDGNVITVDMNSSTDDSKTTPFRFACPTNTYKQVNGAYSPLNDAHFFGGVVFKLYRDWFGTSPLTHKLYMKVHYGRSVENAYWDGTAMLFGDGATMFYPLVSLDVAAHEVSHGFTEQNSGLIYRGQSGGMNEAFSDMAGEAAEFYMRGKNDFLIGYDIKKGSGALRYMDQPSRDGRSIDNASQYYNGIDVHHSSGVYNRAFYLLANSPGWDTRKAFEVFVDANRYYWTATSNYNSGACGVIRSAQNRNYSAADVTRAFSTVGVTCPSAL
T2 sequence (P14756 198-498): as above

Row | SMILES | level of Trappin-2 [1] | level of IL-6 [2] | inhibition at 25 µM [3] [%] | Ki [4] [µM]
1 | O=C(O)CC1(C(=O)NCc2nc(-c3ccccc3)cs2)Cc2ccccc2C1 [Example 1, 2-[2-[(4-phenylthiazol-2-yl)methylcarbamoyl]indan-2-yl]acetic acid] | restored in a dose response maneer level of both Trappin-2 and IL-6 similar to the control | restored in a dose response maneer level of both Trappin-2 and IL-6 similar to the control | > 75 | 0.05 to 0.2
2 | COc1cc(OCC[N+]2(C)CCN(C)C(=O)C2)ccc1-c1csc(CNC(=O)C2(CC(=O)[O-])Cc3ccccc3C2)n1 (centres unmarked) [Example 84, 2-[2-[[4-[4-[2-(1,4-dimethyl-3-oxo-piperazin-1-ium-1-yl)ethoxy]-2-methoxy-phenyl]thiazol-2-yl]methylcarbamoyl]indan-2-yl]acetate] | – | – | 60 to 75 | 0.05 to 0.2
3 | CN1CCN(C(=O)N2CCC(n3cc(-c4csc(CNC(=O)C5(CC(=O)O)Cc6ccccc6C5)n4)cn3)CC2)CC1 [Example 104, 2-[2-[[4-[1-[1-(4-methylpiperazine-1-carbonyl)-4-piperidyl]pyrazol-4-yl]thiazol-2-yl]methylcarbamoyl]indan-2-yl]acetic acid] | – | – | 60 to 75 | 0.05 to 0.2
4 | C[N+]1(C)CCN(C(=O)COc2ccc(-c3csc(CNC(=O)C4(CC(=O)[O-])Cc5ccccc5C4)n3)cc2)CC1 [Example 47, 2-[2-[[4-[4-[2-(4,4-dimethylpiperazin-4-ium-1-yl)-2-oxo-ethoxy]phenyl]thiazol-2-yl]methylcarbamoyl]indan-2-yl]acetate] | – | – | 60 to 75 | 0.2 to 10
5 | O=C(O)CC1(C(=O)NCc2nc(-c3ccccc3CO)cs2)Cc2ccccc2C1 [Example 148, 2-[2-[[4-[2-(hydroxymethyl)phenyl]thiazol-2-yl]methylcarbamoyl]indan-2-yl]acetic acid] | – | – | 60 to 75 | 0.05 to 0.2
6 | COc1cc(OCCCN(C)C)ccc1-c1csc(CNC(=O)C2(CC(=O)O)Cc3cc(F)c(F)cc3C2)n1 [Example 80, 2-[2-[[4-[4-[3-(dimethylamino)propoxy]-2-methoxyphenyl]thiazol-2-yl]methylcarbamoyl]-5,6-difluoro-indan-2-yl]acetic acid] | – | – | 60 to 75 | 0.05 to 0.2
7 | CN1CCN(C(=O)COc2ccc(-c3csc(CNC(=O)C4(CC(=O)O)Cc5ccccc5C4)n3)cn2)CC1 [Example 38, 2-[2-[[4-[6-[2-(4-methylpiperazin-1-yl)-2-oxo-ethoxy]-3-pyridyl]thiazol-2-yl]methylcarbamoyl]indan-2-yl]acetic acid] | – | – | 60 to 75 | 0.05 to 0.2
8 | CN1CCN(C(=O)c2ccc(-c3csc(CNC(=O)C4(CC(=O)O)Cc5ccccc5C4)n3)cc2)CC1 [Example 16, 2-[2-[[4-[4-(4-methylpiperazine-1-carbonyl)phenyl]thiazol-2-yl]methylcarbamoyl]indan-2-yl]acetic acid] | – | – | 60 to 75 | 0.2 to 10
9 | CN(C)CC(=O)Nc1ccc(-c2csc(CNC(=O)C3(CC(=O)O)Cc4ccccc4C3)n2)cc1 [Example 39, 2-[2-[[4-[4-[[2-(dimethylamino)acetyl]amino]phenyl]thiazol-2-yl]methylcarbamoyl]indan-2-yl]acetic acid] | – | – | 60 to 75 | 0.05 to 0.2
10 | C[N+]1(CCOc2ccc(-c3csc(CNC(=O)C4(CC(=O)[O-])Cc5ccccc5C4)n3)cc2S(C)(=O)=O)CCOCC1 [Example 136, 2-[2-[[4-[4-[2-(4-methylmorpholin-4-ium-4-yl)ethoxy]-3-methylsulfonyl-phenyl]thiazol-2-yl]methylcarbamoyl]indan-2-yl]acetate] | – | – | 60 to 75 | 0.05 to 0.2
11 | CN(C)C1CN(C(=O)c2ccc(-c3csc(CNC(=O)C4(CC(=O)O)Cc5ccccc5C4)n3)cc2)C1 [Example 20, 2-[2-[[4-[4-[3-(dimethylamino)azetidine-1-carbonyl]phenyl]thiazol-2-yl]methylcarbamoyl]indan-2-yl]acetic acid] | – | – | 60 to 75 | 0.2 to 10
12 | COc1cc(OCC(=O)N2CC[N+](C)(C)CC2)ccc1-c1csc(CNC(=O)C2(CC(=O)[O-])Cc3cc(F)c(F)cc3C2)n1 [Example 82, 2-[2-[[4-[4-[2-(4,4-dimethylpiperazin-4-ium-1-yl)-2-oxo-ethoxy]-2-methoxy-phenyl]thiazol-2-yl]methylcarbamoyl]-5,6-difluoro-indan-2-yl]acetate] | – | – | 60 to 75 | 0.05 to 0.2
13 | C[n+]1ccc(COc2ccc(-c3csc(CNC(=O)C4(CC(=O)[O-])Cc5ccccc5C4)n3)cc2)cc1 [Example 51, 2-[2-[[4-[4-[(1-methylpyridin-1-ium-4-yl)methoxy]phenyl]thiazol-2-yl]methylcarbamoyl]indan-2-yl]acetate] | – | – | 60 to 75 | 0.05 to 0.2
14 | COc1cc(OCCC[N+](C)(C)C)ccc1-c1csc(CNC(=O)C2(CC(=O)[O-])Cc3cc(F)c(F)cc3C2)n1 [Example 81, 2-[5,6-difluoro-2-[[4-[2-methoxy-4-[3-(trimethylammonio)propoxy]phenyl]thiazol-2-yl]methylcarbamoyl]indan-2-yl] acetate] | – | – | 60 to 75 | 0.05 to 0.2
15 | COc1cc(OCc2ccncc2)ccc1-c1csc(CNC(=O)C2(CC(=O)O)Cc3ccccc3C2)n1 [Example 74, 2-[2-[[4-[2-methoxy-4-(4-pyridylmethoxy)phenyl]thiazol-2-yl]methylcarbamoyl]indan-2-yl]acetic acid] | – | – | > 75 | < 0.05
16 | O=C(O)CC1(C(=O)NCc2nc(-c3cncnc3)cs2)Cc2ccccc2C1 [Example 94, 2-[2-[(4-pyrimidin-5-ylthiazol-2-yl)methylcarbamoyl]indan-2-yl]acetic acid] | – | – | 60 to 75 | 0.2 to 10
17 | CN1CCN(CCCOc2ccc(-c3csc(CNC(=O)C4(CC(=O)O)Cc5ccccc5C4)n3)cc2)CC1 [Example 57, 2-[2-[[4-[4-[3-(4-methylpiperazin-1-yl)propoxy]phenyl]thiazol-2-yl]methylcarbamoyl]indan-2-yl]acetic acid] | – | – | 60 to 75 | 0.05 to 0.2
18 | O=C(O)CC1(C(=O)NCc2nc(-c3ccccc3OC(F)(F)F)cs2)Cc2ccccc2C1 [Example 145, 2-[2-[[4-[2-(trifluoromethoxy)phenyl]thiazol-2-yl]methylcarbamoyl]indan-2-yl]acetic acid] | – | – | 60 to 75 | 0.05 to 0.2
19 | C[N+]1(CCOc2ccc(-c3csc(CNC(=O)C4(CC(=O)[O-])Cc5ccccc5C4)n3)cc2)CCOCC1 [Example 50, 2-[2-[[4-[4-[2-(4-methylmorpholin-4-ium-4-yl)ethoxy]phenyl]thiazol-2-yl]methylcarbamoyl]indan-2-yl]acetate] | – | – | 60 to 75 | 0.2 to 10
20 | C[n+]1ccc(COc2ccc(-c3csc(CNC(=O)C4(CC(=O)[O-])Cc5ccccc5C4)n3)cn2)cc1 [Example 143, 2-[2-[[4-[6-[(1-methylpyridin-1-ium-4-yl)methoxy]-3-pyridyl]thiazol-2-yl]methylcarbamoyl]indan-2-yl]acetate] | – | – | 10 to 60 | 0.05 to 0.2
21 | O=C(O)CC1(C(=O)NCc2nc(-c3ccccc3O)cs2)Cc2ccccc2C1 [Example 10, 2-[2-[[4-(2-hydroxyphenyl)thiazol-2-yl]methylcarbamoyl]indan-2-yl]acetic acid] | – | – | 10 to 60 | 0.05 to 0.2
22 | Cn1cc(-c2csc(CNC(=O)C3(CC(=O)O)Cc4ccccc4C3)n2)cn1 [Example 89, 2-[2-[[4-(1-methylpyrazol-4-yl)thiazol-2-yl]methylcarbamoyl]indan-2-yl]acetic acid] | – | – | 60 to 75 | 0.05 to 0.2
23 | C[N+]1(CCCOc2ccc(-c3csc(CNC(=O)C4(CC(=O)[O-])Cc5ccccc5C4)n3)cc2)CCOCC1 [Example 56, 2-[2-[[4-[4-[3-(4-methylmorpholin-4-ium-4-yl)propoxy]phenyl]thiazol-2-yl]methylcarbarmoyl]indan-2-yl]acetate] | – | – | 60 to 75 | 0.05 to 0.2
24 | CN1CCC(C(=O)Nc2ccc(-c3csc(CNC(=O)C4(CC(=O)O)Cc5ccccc5C4)n3)cc2)CC1 [Example 43, 2-[2-[[4-[4-[(1-methylpiperidine-4-carbonyl)amino]phenyl]thiazol-2-yl]methylcarbamoyl]indan-2-yl]acetic acid] | – | – | 60 to 75 | 0.2 to 10
